Measurements as given in US4428952A, “Substituted pyrrolo[2,1-b]quinazolines and pyrido[2,1-b]quinazolines useful for the treatment of or the prevention of gastrointestinal ulcers” (Farmitalia Carlo Erba S.p.A., priority 1981, dated 1984).

Tests used:
restraint ulcers = assay: inhibition of restraint ulcers in rats (Bonfils et al.); type: in vivo, rat (Sprague-Dawley male); conditions: po; rat, p.o. one hour before immobilization; approximate values; lesions counted 4 hours after immobilization; read-out: Anti-ulcerogenic activity ED50 p.o.
Description: The anti-ulcerogenic activity of the compounds of the invention is shown, e.g., by the fact that they are active in the test of the inhibition of restraint ulcers in rats, according to the method of Bonfils et al., (Therapie, 1960, 5, 1096; Jap. J. Pharmac. 1945, 43, 5).
The tested compound was administered per os (p.o.) one hour before the immobilization. Six Sprague-Dawley male rats (100-120 g) fasted 24 hours were used for the experiment: a square flexible small-mesh wire netting was used for the immobilization and 4 hours after the immobilization the rats were sacrificed, their stomachs were removed and the lesions counted under a dissecting microscope.

[1] = test system: syndrome induced by oxotremorine; assay: antagonism against syndrome induced by oxotremorine in mice (Leszkovszky and Tardos); anticholinergic activity; type: in vivo, mouse; conditions: 100 mg/kg, oral administration
Description: Considering that many anti-ulcer agents display, as does atropine, a remarkable but undesired anti-cholinergic activity, the compounds of the invention have been assessed for their antagonism against syndrome induced by oxotremorine in mice, according to the method described by Leszkovszky G. P. and Tardos L. (Europ. J.Pharmac. 1971, 15, 310).

[2] = acute toxicity (LD50), single administration of increasing doses; conditions: in vivo, po, mouse, per os, measured on the seventh day of treatment, read-out: approximate acute toxicity (LD50)
Description: In view of their high therapeutic index the compounds of the invention can be safely used in medicine. For example, the approximate acute toxicity (LD50) of the compounds 3-benzylidene-1,2,3,9-tetrahydro-9-oxo-pyrrolo[2,1-b]quinazoline-7-carboxylic acid; 3-benzylidene-1,2,3,9-tetrahydro-9-oxo-pyrrolo[2,1-b]quinazoline-6-carboxylic acid; 6-benzylidene-6,7,8,9-tetrahydro-11-oxo-11H-pyrido[2,1-b]quinazoline-2-carboxylic acid; 6-benzylidene-6,7,8,9-tetrahydro-11-oxo-11H-pyrido[2,1-b]quinazoline-3-carboxylic acid in mouse, determined with single administration of increasing doses and measured on the seventh day of treatment is per os higher than 800 mg/kg.

gastric secretion = assay: inhibition of gastric secretion in rats (H. Shay et al.); type: in vivo; conditions: Rattus norvegicus, intraduodenal administration, approximate value, read-out: antisecretory activity ED50

Compound: O=C(O)c1ccc2nc3n(c(=O)c2c1)CCC3=Cc1ccccc1 [3-benzylidene-1,2,3,9-tetrahydro-9-oxo-pyrrolo[2,1-b]quinazoline-7-carboxylic acid]
- ED50 (restraint ulcers): ~8 mg/kg
- antagonism against syndrome induced by oxotremorine [1]: inactive
- LD50 at 168 h [2]: > 800 mg/kg

Compound: O=C(O)c1ccc2c(=O)n3c(nc2c1)C(=Cc1ccccc1)CCC3 [6-benzylidene-6,7,8,9-tetrahydro-11-oxo-11H-pyrido/2,1-b/quinazoline-3-carboxylic acid]
- ED50 (restraint ulcers): ~8 mg/kg
- ED50 (gastric secretion): ~15 mg/kg
- antagonism against syndrome induced by oxotremorine [1]: inactive
- LD50 at 168 h [2]: > 800 mg/kg

Compound: O=C(O)c1ccc2c(=O)n3c(nc2c1)C(=Cc1ccccc1)CC3 [3-benzylidene-1,2,3,9-tetrahydro-9-oxo-pyrrolo[2,1-b]quinazoline-6-carboxylic acid]
- ED50 (restraint ulcers): ~10 mg/kg
- antagonism against syndrome induced by oxotremorine [1]: inactive
- LD50 at 168 h [2]: > 800 mg/kg

Compound: O=C(O)c1ccc2nc3n(c(=O)c2c1)CCCC3=Cc1ccccc1 [6-benzylidene-6,7,8,9-tetrahydro-11-oxo-11H-pyrido[2,1-b]quinazoline-2-carboxylic acid]
- ED50 (restraint ulcers): ~9 mg/kg
- antagonism against syndrome induced by oxotremorine [1]: inactive
- LD50 at 168 h [2]: > 800 mg/kg
